The results in this text go back to patent US11517550B2 (priority 2008, dated 2022).

The test system of this assay is Clostridium perfringens ATCC 13124. The format is cell-based. The settings on record: brain heart infusion broth, pH 6.0, 30° C., 0% oxygen.

On to C8 lactylate, for which the “MIC values (%)” value turned out to be 0.05%.
For the substance C10 lactylate, the “MIC values (%)” value came to 0.04%.
Regarding C12 lactylate, the “MIC values (%)” value amounted to 0.002%.
Take C14 lactylate: the “MIC values (%)” value was 0.001%.
With C16 lactylate the figure was 0.002%; with C18:1 lactylate, 0.02%.
